Test results from patent publication US7648993B2, “Methods of treating disorders with Group I mGluR antagonists” (Brown University, priority 2001, dated 2010).

Legend:
[1] = system: cultured hippocampal neurons; assay: Acid strip immunocytochemistry for internalized GluR1 (AMPARs); assay type: cell-based, rat
[2] = system: cultured hippocampal neurons; assay: Immunocytochemical localization of surface synaptic receptors (GluR2, GluR1, NR1, GABAAβ1); assay type: cell-based, rat; conditions: for GluR1-positive synapses: cycloheximide 60 μM applied 15 min before DHPG where named
Text: We next determined if the DHPG-induced increase in internalized AMPARs is accompanied by a net decrease in surface-expressed receptor clusters at synapses. At various intervals after DHPG washout, cells were fixed and surface GluR2 or GluR1 was labeled with N-terminal antibodies without permeabilization. The cultures were then permeabilized, and synapses were labeled using an antibody against the presynaptic marker synapsin I or synaptophysin coupled to the appropriate secondary antibody. Under control conditions, most synapses were immunoreactive for AMPAR clusters (GluR2, 80.6±9.0%; n=10 cells, 200 synapses, FIGS. 5A-D; GluR1, 72.5±4.7%; n=15 cells, 225 synapses; FIGS. 5E and F).
Following experimental treatment, low-density cultures were fixed in 4% paraformaldehyde with 4% sucrose for 5 min. Cultures were rinsed in PBS and then blocked in PBS with 20% fetal bovine serum for 1 h. Cultures were stained with N-terminal receptor antibodies overnight at 4° C. (GluR2, 1:100, Chemicon, Ternecula, California; GluR1, 1:100, gift of R. Huganir; NR1, 1:500, Chemicon MAB363; GABAAβ1, 1:100 Santa Cruz Biologicals, Santa Cruz, Calif.). Cultures were then rinsed in blocking buffer containing 0.1% Triton-X for 20 min and exposed to antibodies directed against presynaptic proteins (synapsin 1, 1:1000, Chemicon; synaptophysin, 1:100, Boehringer Manheim, Irvine, Calif.) for 1 h at room temperature. Cultures were then rinsed and exposed to the appropriate fluorescent secondary antibodies (Jackson Immunoresearch, West Grove, Pa.).
Microscopy was performed with a Nikon E800 microscope using a 60×1.4 NA objective (Melville, N.Y.). Fluorescence images were collected with a Sensys cooled CCD camera and analyzed using IP-Labs software. Additional images were collected with a Olympus Flowview confocal microscope with a 60×1.2 NA objective. All analyses were performed blind to the stimulation history of the culture. Microscopic fields had 1-3 neurons displaying smooth soma and generally healthy morphology with multiple distinct processes. Immunofluorescence was analyzed along the proximal 50 μm of 3 or more dendrites per neuron. Immunoreactive puncta were defined as discrete points along the dendrite with fluorescence intensity twice the background staining of the neuron. Five cells were analyzed per culture and 3-6 cultures were analyzed per condition. Separate controls were performed with each experiment and a Student's t-test was used to determine statistical significance. Data are expressed as puncta per 10 μm of dendrite unless stated otherwise.

[3] = system: hippocampal slices from mGluR5 knockout mice; assay: DHPG-LTD of field potentials in hippocampal slices from mGluR5 knockout mice and wild-type littermates; assay type: cell-based
Description: (§1) All animals were used in accordance with procedures approved by the Brown University Institutional Animal Care and Use Committee. Hippocampal slices were prepared from postnatal day 21-30 (P21-30) Long Evans rats (Charles River, Cambridge, Mass.) and mGluR5 knockout mice (Lu et al. 1997) as described previously (Huber et al. 2000). For most experiments, CA3 was removed immediately after sectioning. Slices recovered for 1-2 h at room temperature (rats) or at 30° C. (mice) in artificial cerebrospinal fluid (ACSF) containing (in mM) 124 NaCl, 5 KCl, 1.25 NaH2PO4, 26 NaHCO3, 1 MgCl2, 2 CaCl2, and 10 dextrose, saturated with 95% O2-5% CO2. For recording, slices were placed in a submersion recording chamber and perfused with 30° C. ACSF at a rate of 2 ml/min.
Baseline responses were collected every 10-30 s using a stimulation intensity (10-30 μA; 0.2 ms) yielding 50-60% of the maximal response. Experiments in which there was a>5% drift in the response magnitude during the 20-min baseline period before DHPG or LFS were excluded from further analysis. All experiments with mGluR5 KO mice used wildtype littermates as controls and were performed blind to the genotype, later determined by Therion (Troy, N.Y.). LFS consisted of 900 pulses at 1 Hz. PP-LFS consisted of 900 pairs of stimuli (50-ms interstimulus interval) delivered at 1 Hz. […]
(§2) The group data were analyzed as follows: 1) the initial slopes of the FPs and excitatory postsynaptic potentials (EPSPs), or the amplitude of the excitatory postsynaptic currents (EPSCs), for each experiment were expressed as percentages of the preconditioning or DHPG baseline average, 2) the time scale in each experiment was converted to time from the onset of conditioning or DHPG, and 3) the time-matched, normalized data were averaged across experiments and expressed in the text and figures as the means ±SE. Significant differences between groups were determined using an independent t-test or ANOVA performed on a 5-min average taken 1 h after LFS or DHPG application.

[4] = system: hippocampal area CA1 slices; assay: Sharp electrode EPSP and whole cell voltage-clamp EPSC recordings in hippocampal slices; assay type: cell-based, Long Evans rats; conditions: DHPG 50 μM, 5 min
Description: as §1
Synaptically evoked field potentials (FPs) were recorded from area CA1 as described previously. […]
as §2, with “Significant differences between groups were determined using an independent t-test or ANOVA performed on a 5-min average taken 1 h after LFS or DHPG application.” left out

[5] = system: cultured hippocampal cells; assay: AMPAR-mediated mEPSC recordings; assay type: cell-based, rat; conditions: for mEPSC inter-event interval, % of baseline: 5 min; for mEPSC amplitude, % baseline: not statistically significant

## NC(C(=O)O)c1cc(O)cc(O)c1 (racemic) [DHPG, (RS)-3,5-dihydroxyphenylglycine]
[1]; DHPG 50 μM, 5 min, 15 minutes after treatment onset
  internalized GluR1 puncta: 1.44±0.17 puncta per 10 μm of dendrite
[1]; DHPG 50 μM, 5 min, 1 hour
  internalized GluR1 puncta: 1.14±0.15 puncta per 10 μm of dendrite
[1]; DHPG 50 μM, 5 min, APV 50 μM
  internalized GluR1 puncta, APV experiment: 1.49±0.22 puncta per 10 μm of dendrite
[1]; DHPG 50 μM, 5 min, LY344545 100 μM
  internalized GluR1 puncta, LY344545 experiment: 1.39±0.34 puncta per 10 μm of dendrite
[1]; measured at 60 minutes, chx 60 μM applied 15 min before DHPG
  internalized GluR1 puncta, cycloheximide experiment: 1.5±0.27 puncta per 10 μm of dendrite
[2]; 15 min after DHPG
  GluR1-positive synapses: 29.3±5.4%
[2]; 15 minutes after DHPG treatment
  NR1-positive synapses: 28±6%
[2]; 1 h after DHPG
  change in synapsin puncta density (in words): no change
[2]; 60 min after DHPG treatment
  synapsin-labeled puncta with GABAAβ1 clusters: 10.9±2%
[2]; 60 min after DHPG
  GluR1-positive synapses: 20.0±12.0%
[2]; 1 hour after DHPG treatment
  synapses with surface staining for GluR2: 40.8±11%
[2]; 60 minutes after DHPG treatment, with cycloheximide where named
  NR1-positive synapses: 21±3%
[3]; 1 h after DHPG, mGluR5 +/−
  DHPG-LTD, FP % of baseline, mGluR5 heterozygous mutants: 84±4%
[3]; 1 h after DHPG, wild type
  DHPG-LTD, FP % of baseline, wild-type littermate controls: 77±2%
[3]; measured 1 h after DHPG application, mGluR5 −/−
  DHPG-LTD, FP % of baseline, mGluR5 homozygous mutants: 98±3%
[4]; sharp electrode recording
  EPSP slope after DHPG (LTD), % of baseline: 61±5%
[4]; whole cell voltage clamp at −70 mV
  EPSC amplitude after DHPG (LTD), % of baseline: 69±5%
[5]; 15 min after DHPG 50 μM
  mEPSC inter-event interval, % of baseline: 315%
[5]; 15 minutes following DHPG
  mEPSC amplitude, % baseline: 94.2%
[5]; 60 minutes after DHPG 50 μM
  mEPSC inter-event interval, % of baseline: 319%
[5]; 60 minutes following DHPG
  mEPSC amplitude, % baseline: 92.2%
